Our source for the Ki values is BindingDB's records for doi:10.1016/0024-3205(85)90028-1 (Universit&Eacute, 1985).

Counter-ions that a name gives are not always drawn.

The target in this assay is D(1A) dopamine receptor (Rattus norvegicus, UniProt P18901).
Sequence of D(1A) dopamine receptor (P18901 whole entry): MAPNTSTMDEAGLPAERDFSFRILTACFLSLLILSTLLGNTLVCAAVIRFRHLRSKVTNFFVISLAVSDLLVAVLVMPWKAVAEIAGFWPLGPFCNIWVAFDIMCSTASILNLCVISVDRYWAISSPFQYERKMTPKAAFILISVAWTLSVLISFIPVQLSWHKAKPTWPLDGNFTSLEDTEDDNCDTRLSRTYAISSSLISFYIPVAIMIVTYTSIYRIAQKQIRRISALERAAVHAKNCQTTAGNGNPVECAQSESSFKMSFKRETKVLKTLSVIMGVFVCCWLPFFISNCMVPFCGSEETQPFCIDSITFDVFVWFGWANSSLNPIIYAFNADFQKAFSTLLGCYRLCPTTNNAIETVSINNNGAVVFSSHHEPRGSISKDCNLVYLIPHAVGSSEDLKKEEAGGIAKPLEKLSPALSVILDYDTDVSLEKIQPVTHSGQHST
As for `O=c1[nH]c2ccccc2n1CCCN1CCC(n2c(=O)[nH]c3cc(Cl)ccc32)CC1`, the inhibition constant (Ki) was > 10000 nM.
The compound `OCCN1CCN(CCCN2c3ccccc3Sc3ccc(Cl)cc32)CC1` [4-[3-(2-chlorophenothiazin-10-yl)propyl]-1-piperazineethanol] yielded a Ki of 44 nM.
`OCCN1CCN(CCCN2c3ccccc3Sc3ccc(C(F)(F)F)cc32)CC1` [2-[4-[3-[2-(trifluoromethyl)phenothiazin-10-yl]propyl]piperazin-1-yl]ethanol;hydrochloride] came in with a Ki of 4.5 nM.
As for `c1ccc2c(c1)Nc1ccccc1S2` [phenothiazine], the Ki was > 10000 nM.
Then `O=C(c1ccc(F)cc1)C1CCN(CCn2c(=O)[nH]c3ccccc3c2=O)CC1` [3-(2-{4-[(4-fluorophenyl)carbonyl]piperidin-1-yl}ethyl)-1,2,3,4-tetrahydroquinazoline-2,4-dione], with 200 nM; and `NCCc1c[nH]c2ccc(O)cc12` [[3H]-5-HT], with 5000 nM; and `NC1CCc2cc(O)c(O)cc2C1` (stereo not given), with 5120 nM.
In the case of `CC(CN1c2ccccc2Sc2ccccc21)N(C)C` (stereo not drawn) [N,N,alpha-trimethyl-10H-phenothiazine-10-ethanamine] it was 1780 nM; in that of `CN1CCN(CC/C=C2/c3ccccc3Sc3ccc(S(=O)(=O)N(C)C)cc32)CC1` [MLS000028463], 1520 nM.
The compound `O=c1[nH]c2ccccc2n1C1CCN(CCCC(c2ccc(F)cc2)c2ccc(F)cc2)CC1` [1-(1-(4,4-bis(4-fluorophenyl)butyl)piperidin-4-yl)-1H-benzo[d]imidazol-2(3H)-one] had a Ki of 1420 nM.
